According to patent US7638540B2, “Benzofuran compound and medicinal composition containing the same” (The New Industry Research Organization, priority 2003, dated 2009):

Legend:
[1] = test system: LTB4 receptor; assay: TXB2 release from guinea pig eosinophils stimulated with LTB4 (LTB4 receptor antagonist activity); type: cell-based; settings: 10^−3 M test compound (37.5 μl) added to 300 μl cell suspension, then 10^−7 M LTB4 (37.5 μl), 37° C. 15 min, positive control 100, negative control 0, N.D. = TXB2 concentration at measurement limit or less
Method: The LTB4 receptor antagonist activity of the test compound was examined using, as an index, thromboxane B2 (TXB2) released when stimulating eosinophil of guinea pig with LTB4.
Based on the method described in Japanese Journal of Pharmacology, vol. 70, p. 337-345 (1996) etc., eosinophils of guinea pig were prepared. A cell suspension (300 μl, 1.25×10^6 cells/ml) was placed in a 5 ml polypropylene test tube and, after incubation at 37° C. for 5 min., 10^−3 M test compound (37.5 μl) dissolved in 0.1% DMSO aqueous solution was added and the cells were continuously cultured for 5 min. Then, 10^−7 M LTB4 (37.5 μl) was added to induce the reaction and the cells were incubated at 37° C. for 15 min. The reaction was quenched in ice water, and the culture was centrifuged at 4° C., 3000 rpm for 10 min. The obtained supernatant was prepared as a sample for TXB2 measurement, and preserved at −80° C. before use for the measurement. The quantitation of TXB2 was performed using a TXB2 enzyme immunoassay kit (manufactured by Cayman Chemical Company). The release ratio (%) of TXB2 from the eosinophils was determined by the following formula: release ratio (%) of TXB2=[(average value of test compound administration group−average value of negative control group)/(average value of positive control group−average value of negative control group)]×100
As used herein, the positive control group means a group to which stimulation with LTB4 was applied but the same volume of a medium was given instead of the test compound, and the negative control group means a group to which stimulation with LTB4 was not applied, the same volume of a medium was given instead of LTB4, and the same volume of a medium was given instead of the test compound. When the release ratio of TXB2 is smaller than 0, it means that the measured TXB2 concentration was lower than that of the negative control group. When the TXB2 concentration in the sample was the measurement limit or less, N.D. is indicated.

[2] = target: T1, human BLT2 (Homo sapiens, UniProt Q9NPC1); assay: LTB4-induced increase in intracellular calcium ion concentration in CHO cells expressing human BLT2 (Fluo-3, Flexstation); type: cell-based; settings: LTB4 100 nM final; for Suppressive effect on increase in intracellular calcium ion concentration compared with ZK158252 (in words): compound 10 μM final
T1 construct: expressed in transfected cells; host or cells: CHO cells
T1 sequence (Q9NPC1 1-358): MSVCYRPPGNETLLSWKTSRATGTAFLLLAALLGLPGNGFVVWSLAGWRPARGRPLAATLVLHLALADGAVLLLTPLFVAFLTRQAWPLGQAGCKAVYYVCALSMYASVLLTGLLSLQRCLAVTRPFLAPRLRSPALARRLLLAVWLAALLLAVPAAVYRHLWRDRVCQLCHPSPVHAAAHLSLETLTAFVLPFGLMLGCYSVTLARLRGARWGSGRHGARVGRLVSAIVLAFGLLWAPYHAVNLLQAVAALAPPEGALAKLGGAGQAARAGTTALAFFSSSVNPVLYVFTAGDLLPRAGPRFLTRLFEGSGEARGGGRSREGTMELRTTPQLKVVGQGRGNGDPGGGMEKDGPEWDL
Method: (§1) CHO cells habouring a gene encoding human BLT1 or human BLT2 and functionally expressing the receptor were seeded in a 96 well plate at 4×10^4 cells/well, and cultured at 37° C. for 60 min. The culture supernatant was removed and a loading buffer (100 μl) containing 4 μM Fluo-3 (manufactured by Dojindo), 0.04% pluoronic acid (manufactured by Sigma) and 1% serum was added. The mixture was culture at 37° C. for 30 min to introduce Fluo-3 into the cells. After culture, the cells were washed with a buffer, and a buffer containing various compounds (10 μM (final concentration)) was added, and then 100 nM (final concentration) of LTB4 was added. Changes in the intracellular calcium ion concentration were measured with Flexstation (manufactured by Molecular Devices Corporation) as increase in the fluorescence intensity (area under a curve in a time-course graph of fluorescence intensity in 10 min measurement). As a positive control of BLT1 and BLT2 antagonists, ZK158252 was used.

[3] = target: T2, human BLT1 (Homo sapiens, UniProt Q15722); assay: LTB4-induced increase in intracellular calcium ion concentration in CHO cells expressing human BLT1 (Fluo-3, Flexstation); type: cell-based; settings: CHO cells with human BLT1; LTB4 100 nM final; compound 10 μM final
T2 construct: expressed in transfected cells; host or cells: CHO cells
T2 sequence (Q15722 whole entry): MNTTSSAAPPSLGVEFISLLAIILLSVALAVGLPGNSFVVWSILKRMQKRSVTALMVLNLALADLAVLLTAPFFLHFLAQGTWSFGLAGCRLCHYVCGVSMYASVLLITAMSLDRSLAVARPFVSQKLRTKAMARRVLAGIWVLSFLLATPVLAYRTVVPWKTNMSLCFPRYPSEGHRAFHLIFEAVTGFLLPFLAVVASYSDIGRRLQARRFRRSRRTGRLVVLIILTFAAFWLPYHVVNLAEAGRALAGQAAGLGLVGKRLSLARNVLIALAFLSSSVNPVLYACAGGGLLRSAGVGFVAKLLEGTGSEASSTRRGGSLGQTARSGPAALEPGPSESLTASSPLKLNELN
Method: as §1

| melting point [°C] | Suppression of increase in intracellular calcium ion concentration due to LTB4 stimulation (in words) ([2]; CHO cells with human BLT2, positive control antagonist) | Suppression of increase in intracellular calcium ion concentration due to LTB4 stimulation (in words) [3] | Structure (SMILES) | Amount of TXB2 release (%) [1] [%] | Suppressive effect on increase in intracellular calcium ion concentration compared with ZK158252 (in words) [2] |
| --- | --- | --- | --- | --- | --- |
| 155.5 to 157.5 | – | – | COc1cccc(NC(=O)/C=C(\C)c2cc3cccc(OCCCC(=O)O)c3o2)c1 [Example 29, (E)-4-{2-[2-(3-methoxyphenylcarbamoyl)-1-methylvinyl]benzofuran-7-yloxy}butyric acid] | −0.19 | almost of the same level as or not less than that by ZK158252 |
| 101.5 to 105 | – | – | CCOC(=O)CCCOc1cccc2cc(/C(C)=C\C(=O)Nc3ccc(OC)c(OC)c3)oc12 [Example 46, Ethyl (Z)-4-{2-[2-(3,4-dimethoxyphenylcarbamoyl)-1-methylvinyl]benzofuran-7-yloxy}butyrate] | 45.62 | almost of the same level as or not less than that by ZK158252 |

More lines, now with the values behind:

| Structure (SMILES) | melting point [°C] | Suppression of increase in intracellular calcium ion concentration due to LTB4 stimulation (in words) ([2]; CHO cells with human BLT2, positive control antagonist) | Suppression of increase in intracellular calcium ion concentration due to LTB4 stimulation (in words) [3] | Amount of TXB2 release (%) [1] [%] | Suppressive effect on increase in intracellular calcium ion concentration compared with ZK158252 (in words) [2] |
| --- | --- | --- | --- | --- | --- |
| O=C(O)CCC/C=C1\CCCCC1/C=C/C=C/C(O)C1(CC#Cc2ccccc2)CCC1 (stereo not shown) [ZK158252, reference compound] | – | significantly suppressed | significantly suppressed | – | – |
| CCOC(=O)CCCOc1cccc2cc(/C(C)=C/C(=O)N3CCOCC3)oc12 [Example 30, Ethyl (E)-4-[2-(1-methyl-3-morpholino-3-oxo-1-propenyl)benzofuran-7-yloxy]butyrate] | 90 to 94.8 | – | – | 0.086 | almost of the same level as or not less than that by ZK158252 |
| CCOC(=O)CCCOc1cccc2cc(/C(C)=C/C(=O)NCCc3ccc(OC)c(OC)c3)oc12 [Example 49, Ethyl (E)-4-(2-{2-[2-(3,4-dimethoxyphenyl)ethylcarbamoyl]-1-methylvinyl}benzofuran-7-yloxy)butyrate] | 114 to 115.5 | – | – | 2.37 | almost of the same level as or not less than that by ZK158252 |
| CCN(CC)C(=O)/C=C(\C)c1cc2cccc(OC(C)C)c2o1 [Example 33, (E)-3-(7-isopropoxybenzofuran-2-yl)-N,N-diethyl-2-butenamide] | – | – | – | −0.199 | almost of the same level as or not less than that by ZK158252 |
